Where a name gives a salt, the structure may show the parent alone. Read-outs that look alike come from different tables or passages of the source.
Tests used:
nasal polyps = details: cited from earlier work
[1] = 4-way crossover study of metoclopramide hydrochloride (nasal, oral, intramuscular) in volunteer human subjects; format: in vivo; details: for Tmax: human, in vivo, Time to Peak
Experimental: A 4-way crossover study was conducted in eight volunteer human subjects to compare the effects of the nasal administration of 5 and 10 mg of metoclopramide hydrochloride in a gel formulation, 10 mg of the same agent in an oral formulation and 5 mg of the product intramuscularly. The nasal formulation had the following composition: […]
______________________________________
BENZYL ALCOHOL N.F. 1.500 ml
SODIUM CHLORIDE U.S.P. 0.800 grams
ACETIC ACID, N.F. 0.320 grams
SODIUM ACETATE U.S.P. 0.077 grams
SORBITOL SOLUTION U.S.P.
METOCLOPRAMIDE HCL 5.000 grams
WATER PURIFIED U.S.P. q.s.
The oral and intramuscular compositions were commercial formulations available from A.G. Robbins Pharmaceutical Company, Richmond, Va., under the name Reglan.
The study was extended to dosage levels of 20 mg and 40 mg by the intranasal route using the same compositions.

in vivo = experiment: in vivo; set-up: species or system Sprague-Dawley male rats; details: rat
Experimental: Two Sprague-Dawley male rats each weighing 250 to 300 grams, anesthetized using sodium pentobarbital (50 mg/Kg of body weight), were administered nasally by micropipet a dosage level of 15 mg/Kg of body weight of the following composition:
216 mg metoclopramide.HCL (MCP.HCL)
895.2 mg polyethylene glycol (PEG 400)
The femoral artery was cannulated with heparinized polyethylene tubing (Clay Adams, PE-50) and blood samples were removed at the times indicated in Table 1.
The samples were analyzed by high pressure liquid chromatography (HPLC) as follows:
Column: Silica Column (4.6×250 mm)
Mobile Phase: CH2 Cl2 : MeOH:NH4 OH=90:10:0.5
Plasma (0.3 ml) was placed in a test tube and 0.1 ml of 1N NaOH was added. Four ml of methylene chloride was then added and the mixture shaken for 10 minutes on a reciprocal shaker, centrifuged for 3 minutes in an IEC clinical centrifuge and the upper layer removed by aspiration. A 3.0 ml aliquot of the methylene chloride layer was transferred to a second tube and evaporated to dryness with a streak of nitrogen gas. The resulting residue was then dissolved in 0.1 to 0.5 ml of mobile phase and submitted to HPLC analysis. […]

nausea and vomiting = experiment: Intranasal metoclopramide for control of nausea and vomiting in cancer patients; format: in vivo, human; details: intranasal 40 mg every four hours
Experimental: The patient was a person with Stage IV ovarian cancer.
Because of repeated nausea and vomiting due to bowel obstruction and other factors, intranasal metoclopramide at 40 mg per dose every four hours was employed for control of symptoms.

cats = details: same or larger amounts into the sinus; cited from earlier work
dogs = details: cited from earlier work

## CC1(C)O[C@@H]2C[C@H]3[C@@H]4C[C@H](F)C5=CC(=O)C=C[C@]5(C)[C@H]4[C@@H](O)C[C@]3(C)[C@]2(C(=O)CO)O1 [flunisolide]
Nasal polyps
  topical antiinflammatory activity: excellent topical antiinflammatory
Nasal polyps; nasal topical
  absorption: not rapidly absorbed
  systemic activity: minimal systemic activity

## CCN(CC)CCNC(=O)c1cc(Cl)c(N)cc1OC [metoclopramide hydrochloride]
[1]; 10 mg nasal, 10 mg P.O. and 5 mg I.M. compared
  pharmacokinetic profiles: statistically identical
[1]; during or after the study, 5 and 10 mg nasal, 10 mg P.O., 5 mg I.M.
  local toxicity: No evidence of local toxicity
[1]; extended study, 20 mg and 40 mg intranasal
  local or systemic toxicity: no evidence of either local or systemic toxicity
[1]
  Tmax: 1.34 h
[1]; im
  Tmax: 1.53 h
[1]; po
  Tmax: 1.62 h
In vivo
  maintenance of high levels: maintained for a longer period of time
  time to achieve maximum levels: extended
In vivo; 15 mg/kg
  Tmax: 0.25 h
In vivo; 15 mg/kg, 0.25 h
  Concentration: 1.61 ± 0.23 ug/ml plasma
In vivo; 15 mg/kg, 0.5 h
  Concentration: 1.55 ± 0.18 ug/ml plasma
In vivo; 15 mg/kg, 0.75 h
  Concentration: 1.30 ± 0.18 ug/ml plasma
In vivo; 15 mg/kg, 1 h
  Concentration: 1.26 ± 0.3 ug/ml plasma
In vivo; 15 mg/kg, 1.25 h
  Concentration: 1.62 ± 0.17 ug/ml plasma
In vivo; 15 mg/kg, 1.5 h
  Concentration: 1.63 ± 0.18 ug/ml plasma
In vivo; 15 mg/kg, 2 h
  Concentration: 1.55 ± 0.26 ug/ml plasma
In vivo; 15 mg/kg, 4 h
  Concentration: 1.29 ± 0.28 ug/ml plasma
In vivo; 15 mg/kg, Concentration
  concentration at 0.25 h: 850 ± 120 ng/mL
  concentration at 0.5 h: 1370 ± 210 ng/mL
  concentration at 0.75 h: 1510 ± 180 ng/mL
  concentration at 1 h: 1610 ± 50 ng/mL
  concentration at 1.25 h: 1110 ± 340 ng/mL
  concentration at 1.5 h: 1040 ± 350 ng/mL
  concentration at 2 h: 1100 ± 380 ng/mL
  concentration at 2.5 h: 1550 ± 210 ng/mL
  concentration at 3 h: 1090 ± 360 ng/mL
  concentration at 4 h: 940 ng/mL

## CCN(CC)CCNC(=O)c1cc(Cl)c(N)cc1OC [metoclopramide]
Nausea and vomiting; five more cancer patients refractory to other antinausea treatments
  benefit from treatment: All patients benefited from the treatment
Nausea and vomiting; one patient, Stage IV ovarian cancer with bowel obstruction
  control of nausea: contained their nausea between occasional bouts of vomiting

## CN1CCCC1c1cccnc1 (centres unmarked) [nicotine]
cats
  pressor response: little or no effect
dogs; injection of 1 mg
  pressor response: immediate and marked pressor response
dogs; same or larger amounts into the sinus
  pressor response: little or no effect
